# Data: EPA's ToxValDB 9.5 (doi:10.2903/j.efsa.2006.53r)
# Columns and labels:
# Aphidius rhopalosiphi = conditions: not reported; mortality
# Apis mellifera = conditions: acute, mortality
# Colinus virginianus = conditions: for LD50: acute, oral, mortality
# Tagia sp. = conditions: acute; mortality
# Canidae = conditions: Dog Other, organ weight
compound,measurement,setting,value
COCC(C)N(C(=O)CCl)c1c(C)csc1C (stereo unspecified) [Dimethenamid],LD50,"Rattus norvegicus; acute, oral, mortality",397 mg/kg
same,NOAEL,"Rattus norvegicus; reproduction developmental, growth",33.3 mg/kg-day
same,NOAEL,"Rattus norvegicus; short-term, duration: 4 days, oral, gavage, organ weight",25 mg/kg-day
same,LEL,Aphidius rhopalosiphi,1010 g/ha
same,LD50,"Apis mellifera; duration: 48 hours, dermal",94 µg/piece
same,LD50,"Apis mellifera; oral, unspecified",1000 µg/piece
same,LC50,"Oncorhynchus mykiss; acute, duration: 96 hours, mortality",2.6 µg/mL
same,NOEC,"Oncorhynchus mykiss; chronic/long-term, duration: 90 days, growth",0.12 mg/L
same,LD50,Colinus virginianus; diet,1200 mg/kg
same,LD50,Colinus virginianus,1910 mg/kg
same,NOAEL,Colinus virginianus; reproduction developmental,114 mg/kg-day
same,LC50,Tagia sp.,294 mg/kg
same,LC50,"Daphnia magna; acute, duration: 48 hours, mortality",12 µg/mL
same,NOEC,"Daphnia magna; chronic/long-term, duration: 21 days",0.68 mg/L
same,NOAEL,"Canidae; chronic, duration: 1 years",2 mg/kg-day
same,NOAEL,"Canidae; subchronic, duration: 90 days",4.3 mg/kg-day
